Series [1] concerns the target CGRP receptor (CALCRL/RAMP1) (Homo sapiens). Kind of series: Displacement of [125I]CGRP from CGRP receptor in human SK-N-MC cells after 2 hrs by scintillation counter.
The nature of series [2]: Permeability of compound by PAMPA. It is filed as ADME. As to conditions: read-out: permeability.
Series [3] can be described thus: Permeability of compound across apical to basolateral side in human Caco2 cells. It is filed as ADME, cell-based. As to conditions: Caco-2, read-out: permeability.
Series [4] relates to CGRP receptor (CALCRL/RAMP1) (Homo sapiens). Kind of series: Antagonist activity at CGRP receptor (unknown origin).

The source made the active and inactive calls. No cut-off for these calls is given here. Bounds are passed on as bounds.

As to `Cc1cc(C[C@@H](NC(=O)N2CCC(c3cccc(Br)c3)CC2)C(=O)N2CCC(N3CCCCC3)CC2)cc2cn[nH]c12`, in series [1], the IC50 is 130 nM.
For `Cc1cc(C[C@@H](NC(=O)N2CCN(c3ccc(Br)cc3)CC2)C(=O)N2CCC(N3CCCCC3)CC2)cc2cn[nH]c12`, in series [2], the Papp is 5.2 ×10⁻⁶ cm/s. The Papp A→B in series [3] was under 1.5 ×10⁻⁶ cm/s. In addition, the result in series [4] was Active. The IC50 in series [1] was 33 nM.
With `Cc1cc(C[C@@H](NC(=O)N2CCC(N3Cc4cccc(F)c4NC3=O)CC2)C(=O)N2CCC(N3CCCCC3)CC2)cc2cn[nH]c12`, the Papp A→B in series [3] is under 1.5 ×10⁻⁶ cm/s.
Take `Cc1cc(C[C@@H](NC(=O)N2CCC(c3cccc4ccccc34)CC2)C(=O)N2CCC(N3CCCCC3)CC2)cc2cn[nH]c12`: the IC50 in series [1] was 430 nM.
In the case of `Cc1cc(C[C@@H](NC(=O)N2CCN(c3ccc(C#N)cc3)CC2)C(=O)N2CCC(N3CCCCC3)CC2)cc2cn[nH]c12`, in series [1], the half-inhibitory concentration (IC50) is 99 nM.
For the compound `Cc1cc(C[C@@H](NC(=O)N2CCC(c3ccc4ccccc4c3)CC2)C(=O)N2CCC(N3CCCCC3)CC2)cc2cn[nH]c12`, the Papp in series [2] amounted to 6.1 ×10⁻⁶ cm/s. The Papp A→B in series [3] was under 1.5 ×10⁻⁶ cm/s.
In the case of `Cc1cc(C[C@@H](NC(=O)N2CCC(c3ccccc3)CC2)C(=O)N2CCC(N3CCCCC3)CC2)cc2cn[nH]c12`, the IC50 in series [1] is 460 nM.
Take `Cc1cc(C[C@@H](NC(=O)N2CCC(c3ccccc3F)CC2)C(=O)N2CCC(N3CCCCC3)CC2)cc2cn[nH]c12`: the IC50 in series [1] was 170 nM.
Regarding `Cc1cc(C[C@@H](NC(=O)N2CCC(c3cccc(Cl)c3)CC2)C(=O)N2CCC(N3CCCCC3)CC2)cc2cn[nH]c12`, the concentration for half-maximal inhibition (IC50) in series [1] is 150 nM.
Regarding `Cc1cc(C[C@@H](NC(=O)N2CCC(c3ccc(Cl)cc3Cl)CC2)C(=O)N2CCC(N3CCCCC3)CC2)cc2cn[nH]c12`, the Papp in series [2] was determined as 2.4 ×10⁻⁶ cm/s. Further, the Papp A→B in series [3] is under 1.5 ×10⁻⁶ cm/s. For the same compound, the result in series [4] was Active. Besides, the IC50 in series [1] was 1.1 nM.
Take `Cc1cc(C[C@@H](NC(=O)N2CCN(c3ccc(-c4ccccc4)cc3)CC2)C(=O)N2CCC(N3CCCCC3)CC2)cc2cn[nH]c12`: the half-inhibitory concentration (IC50) in series [1] was 46 nM.
On the same count and under the same terms, the same measure for `Cc1cccc(C2CCN(C(=O)N[C@H](Cc3cc(C)c4[nH]ncc4c3)C(=O)N3CCC(N4CCCCC4)CC3)CC2)c1F`: 120 nM; for `Cc1cc(C[C@@H](NC(=O)N2CCN(c3ccc(Cl)c(Cl)c3)CC2)C(=O)N2CCC(N3CCCCC3)CC2)cc2cn[nH]c12`: 12 nM.
As for `Cc1cc(C[C@@H](NC(=O)N2CCC(c3ccc(F)cc3F)CC2)C(=O)N2CCC(N3CCCCC3)CC2)cc2cn[nH]c12`, the concentration for half-maximal inhibition (IC50) in series [1] was 92 nM.
Consider `COC(=O)c1ccccc1N1CCN(C(=O)N[C@H](Cc2cc(C)c3[nH]ncc3c2)C(=O)N2CCC(N3CCCCC3)CC2)CC1`, for which, in series [1], the IC50 was 110 nM.
On to `Cc1cc(C[C@@H](NC(=O)N2CCN(c3ccccc3C#N)CC2)C(=O)N2CCC(N3CCCCC3)CC2)cc2cn[nH]c12`, for which, in series [1], the IC50 was 8.9 nM.
`Cc1cc(C[C@@H](NC(=O)N2CCC(c3ccc(C(F)(F)F)cc3C(F)(F)F)CC2)C(=O)N2CCC(N3CCCCC3)CC2)cc2cn[nH]c12`: the Papp in series [2] is 7.1 ×10⁻⁶ cm/s. In addition, the Papp A→B in series [3] is under 1.5 ×10⁻⁶ cm/s.
As for `Cc1cc(C[C@@H](NC(=O)N2CCN(c3ccc(F)cc3S(C)(=O)=O)CC2)C(=O)N2CCC(N3CCCCC3)CC2)cc2cn[nH]c12`, in series [1], the 50% inhibitory concentration (IC50) is 2.9 nM.
On to `Cc1cc(C[C@@H](NC(=O)N2CCN(c3ccccc3F)CC2)C(=O)N2CCC(N3CCCCC3)CC2)cc2cn[nH]c12`, for which the IC50 in series [1] was 130 nM.
Still for that read-out and setting: the same measure for `Cc1cc(C[C@@H](NC(=O)N2CCC(c3ccccc3Cl)CC2)C(=O)N2CCC(N3CCCCC3)CC2)cc2cn[nH]c12`: 9.8 nM; for `Cc1cc(C[C@@H](NC(=O)N2CCC(c3ccc(Cl)cc3)CC2)C(=O)N2CCC(N3CCCCC3)CC2)cc2cn[nH]c12`: 41 nM; for `Cc1ccc(C2CCN(C(=O)N[C@H](Cc3cc(C)c4[nH]ncc4c3)C(=O)N3CCC(N4CCCCC4)CC3)CC2)cc1`: 240 nM.
For `Cc1cc(C[C@@H](NC(=O)N2CCN(c3ccc(S(C)(=O)=O)cc3F)CC2)C(=O)N2CCC(N3CCCCC3)CC2)cc2cn[nH]c12`, the IC50 in series [1] was 34 nM.
For the compound `Cc1cc(C[C@@H](NC(=O)N2CCN(c3cccc(Cl)c3)CC2)C(=O)N2CCC(N3CCCCC3)CC2)cc2cn[nH]c12`, in series [2], the Papp stood at 5.2 ×10⁻⁶ cm/s. In addition, the outcome in series [4] was Active. The IC50 in series [1] was 19 nM.
`Cc1cc(C[C@@H](NC(=O)N2CCN(c3ccc(F)c(F)c3)CC2)C(=O)N2CCC(N3CCCCC3)CC2)cc2cn[nH]c12`: the IC50 in series [1] was 97 nM.
As to `CCOC(=O)c1ccc(N2CCN(C(=O)N[C@H](Cc3cc(C)c4[nH]ncc4c3)C(=O)N3CCC(N4CCCCC4)CC3)CC2)cc1`, the IC50 in series [1] was 44 nM.
Take `Cc1cc(C[C@@H](NC(=O)N2CCN(c3ccc(Cl)cc3Cl)CC2)C(=O)N2CCC(N3CCCCC3)CC2)cc2cn[nH]c12`: the Papp in series [2] was 17 ×10⁻⁶ cm/s. In addition, the Papp A→B in series [3] was under 1.5 ×10⁻⁶ cm/s. Besides, in series [4], the outcome was Active. Moreover, the concentration for half-maximal inhibition (IC50) in series [1] was 4.3 nM.
As to `Cc1cc(C[C@@H](NC(=O)N2CCC(c3cc4ccccc4cc3C#N)CC2)C(=O)N2CCC(N3CCCCC3)CC2)cc2cn[nH]c12`, the half-maximal inhibitory concentration (IC50) in series [1] was 0.11 nM.
Consider `Cc1cc(C[C@@H](NC(=O)N2CCN(c3ccc(S(C)(=O)=O)cc3Cl)CC2)C(=O)N2CCC(N3CCCCC3)CC2)cc2cn[nH]c12`, for which, in series [1], the IC50 was 7 nM.
Regarding `Cc1cc(C[C@@H](NC(=O)N2CCN(c3ccccc3Br)CC2)C(=O)N2CCC(N3CCCCC3)CC2)cc2cn[nH]c12`, the Papp in series [2] worked out at 3.5 ×10⁻⁶ cm/s. For the same compound, in series [3], the Papp A→B was 5.6 ×10⁻⁶ cm/s. The outcome in series [4] was Active. Besides, the IC50 in series [1] was 12 nM.
Regarding `Cc1ccc(C2CCN(C(=O)N[C@H](Cc3cc(C)c4[nH]ncc4c3)C(=O)N3CCC(N4CCCCC4)CC3)CC2)c(Cl)c1`, in series [2], the Papp was found to be 12 ×10⁻⁶ cm/s. For the same compound, the Papp A→B in series [3] was under 1.5 ×10⁻⁶ cm/s. Moreover, the result in series [4] was Active. The IC50 in series [1] is 16 nM.
Take `Cc1cc(C[C@@H](NC(=O)N2CCC(c3ccc(Br)cc3)CC2)C(=O)N2CCC(N3CCCCC3)CC2)cc2cn[nH]c12`: the IC50 in series [1] was 13 nM.
The same measure, in the same setting: as for `Cc1ccccc1C1CCN(C(=O)N[C@H](Cc2cc(C)c3[nH]ncc3c2)C(=O)N2CCC(N3CCCCC3)CC2)CC1`, the figure is 170 nM.
On the same count and under the same terms, as for `Cc1cc(C[C@@H](NC(=O)N2CCN(c3ccc(Cl)cc3)CC2)C(=O)N2CCC(N3CCCCC3)CC2)cc2cn[nH]c12`, the figure is 77 nM; as for `Cc1cc(C[C@@H](NC(=O)N2CCN(c3ccccc3)CC2)C(=O)N2CCC(N3CCCCC3)CC2)cc2cn[nH]c12`, 44 nM.
As for `Cc1cc(C[C@@H](NC(=O)N2CCC(c3cc4ccccc4cc3Cl)CC2)C(=O)N2CCC(N3CCCCC3)CC2)cc2cn[nH]c12`, in series [2], the Papp stood at 5.7 ×10⁻⁶ cm/s. Also, the Papp A→B in series [3] is under 1.5 ×10⁻⁶ cm/s. Further, the outcome in series [4] was Active. Further, in series [1], the IC50 was 0.23 nM.

The record behind these values is ChEMBL document CHEMBL3769346, “Synthesis and SAR of calcitonin gene-related peptide (CGRP) antagonists containing substituted aryl-piperazines and piperidines” (Bioorg Med Chem Lett, 2016).
